Data from patent US20050054589A1, “Method for treating diseases using HSP90-inhibiting agents in combination with antibiotics” (Kosan Biosciences, Inc., priority 2003, published 2005).

Assays:
[1] = test system: DLD-1 cells (human colorectal cancer cells); conditions: constant ratio of IC50s, CI<1 synergism, CI=1 additivity, CI>1 antagonism
Protocol: (§1) Human colon adenocarcinoma cell line, DLD-1, and human breast adenocarcinoma cell line, SKBr-3, were obtained from American Type Culture Collection (manassas, VA). DLD-1 cells were maintained in RPMI 1640 medium supplemented with 10% fetal bovine serum, and SKBr-3 cells were cultured in McCoy's 5a medium supplemented with 10% fetal bovine serum. 17-DMAG and 17-AAG were obtained using published procedures. Other cytotoxic agents were purchased commercially from suppliers such as Sigma Chemical Co. (St. Louis, Mo.) and Sequoia Research Products (Oxford, UK).
(§2) Cells were seeded in duplicate in 96-well microtiter plates at a density of 5,000 cells per well and allowed to attach overnight. […] Cell viability was determined using the MTS assay (Promega). For the drug combination assay, cells were seeded in duplicate in 96-well plates (5,000 cells/well). […] Cell viability was determined by the MTS assay.
(§3) Synergism, additivity or antagonism was determined by median effect analysis using the combination index (CI) calculated using Calcusyn (Biosoft, Cambridge, UK). […] The quantities [Dx]1 and [Dx]2 represent the concentrations of the first and second drug, respectively, that when used alone provide a response of x % in the assay. […] The “enhancing” effect of two drugs can also be determined.

[2] = test system: SKBr cells (human breast cancer cells); test: Cell viability (MTS) drug combination assay, combination index, SKBr-3 cells; format: cell-based; conditions: constant ratio of IC50s, CI<1 synergism
Protocol: as §1, §2, §3

[3] = clinical trials; twice-weekly regimen; cited from earlier work
[4] = 17-AAG 24 h before antibiotic, then 48 h
[5] = antibiotic alone 24 h, then 17-AAG for 48 h

SMILES | CI value, combination with 17-AAG, 17-AAG Pre-Administration [1, 4] | CI value, combination with 17-AAG, 17-AAG Post-Administration [1, 5] | CI value, combination with 17-AAG, 17-AAG Pre-Administration [2, 4] | CI value, combination with 17-AAG, 17-AAG Post-Administration [2, 5] | MTD [3]
COc1cccc2c1C(=O)c1c(O)c3c(c(O)c1C2=O)C[C@@](O)(C(=O)CO)C[C@@H]3O[C@H]1C[C@H](N)[C@H](O)[C@H](C)O1 [Doxorubicin, doxorubicin] | 0.58 ± 0.15 | 0.82 ± 0.09 | 0.81 ± 0.05 | 0.45 ± 0.12 | 
C=CCNC1=C2C[C@@H](C)C[C@H](OC)[C@H](O)[C@@H](C)/C=C(\C)[C@H](OC(N)=O)[C@@H](OC)/C=C\C=C(/C)C(=O)NC(=CC1=O)C2=O [17-AAG, 17-(allylamino)-17-desmethoxygeldanamycin] |  |  |  |  | about 220 mg/m2
